Measured values taken from patent US20230391726A1, “DIHYDROQUINAZOLINONES AND RELATED ANALOGS FOR INHIBITING YAP/TAZ-TEAD” (THE KATHOLIEKE UNIVERSITEIT LEUVEN, priority 2022, published 2023).

How the values were obtained:
Type in all cases: cell-based
[1] = test system: YAP/TAZ-TEAD transcription; test: Reporter gene assay for measuring the inhibition of YAP/TAZ-TEAD transcription (TEAD-responsive element luciferase reporter in Hek293T cells); details: Homo sapiens, HEK-293T; Hek293T cells transfected with TEAD-responsive element luciferase reporter, 24 hours incubation
Description: Hek293T cells are cultured in DMEM supplemented with 10% fetal bovine serum, Sodium pyruvate, Sodium bicarbonate, L-glutamine. The cells are harvested and transiently transfected with TEAD-responsive element luciferase reporter. Transfected cells are plated in 384-wells plate containing pre-diluted compounds. After 24 hours incubation at 37° C./5% CO2, assay plates were cooled down to RT and levelled to an equal volume per well, prior to the addition of 25 uL luciferase substrate SteadyLite (Perkin Elmer)/well. The plate was shaken for 10 min at 600 rpm, centrifuged for 1 min at 500 rpm and measured with an Envision reader (PerkinElmer). The amount of relative light units produced by the TEAD reporter is used to calculated percent of inhibition.
The percent of reporter inhibition was calculated in the presence of a positive control inhibitor (100% inhibition) versus a condition with the presence of the vehicle basal activity of the reporter (0% inhibition). The ability of a test compound to inhibit this activity was determined as:
Percentage inhibition=[1-((RLU determined in the presence of vehicle−RLU determined for sample with test compound present) divided by (RLU determined in the presence of vehicle−RLU determined for sample with positive control inhibitor))]*100
The activities of example compounds tested are depicted in Table 3. The activity ranges A, B and C refer to IC50 values in the reporter gene assay as follows: “A”: IC50<1 μM; “B”: 1 μM≤IC50≤20 μM and “C”: IC50>20 μM; NT=not tested.

NCl-H226 = test: Mesothelioma cell line proliferation assay (ATPlite), NCl-H226; details: Homo sapiens, NCI-H226, 144 h, NCl-H226 mesothelioma cells, 6 days incubation
Description: (§1) Mesothelioma cell lines, NCl-H226 and NCl-H2052 (all sourced from the ATCC cell culture collection) are plated in 96-well plates (Corning® 96 Well White Polystyrene Microplate clear flat bottom, white polystyrene (TC-Treated)), at 1500 cells/well in full medium (RPMI 1640 ATCC modification with L-glutamine, HEPES, Phenol Red, Sodium Pyruvate, High glucose, Low sodium bicarbonate and 10% fetal bovine serum). Cells are incubated overnight at 37° C. in an incubator with 5% CO2. Then compounds, dissolved in DMSO, are added in dose-response. Cells are incubated with compound dilutions for another 6 days at 37° C. in an incubator with 5% CO2. Cell viability is quantitated using the ATPlite kit (Perkin-Elmer) and the luminescence is read-out using an Envision instrument (Perkin-Elmer). The amount of relative light units produced using the ATPlite kit is used to calculated percent of inhibition.
(§2) The activities of some example compounds are depicted in Table 4. The activity ranges A, B and C refer to EC50 values in the mesothelioma cell line proliferation assay as described as follows: “A”: EC50<1 μM; “B”: 1 μM≤EC50≤10 μM and “C”: EC50>10 μM; NT: not tested.

NCl-H2052 = test: Mesothelioma cell line proliferation assay (ATPlite), NCl-H2052; details: Homo sapiens, NCI-H2052, 144 h, NCl-H2052 mesothelioma cells, 6 days incubation
Description: as §1, §2

SMILES	EC50 [1]	EC50 (NCl-H226)	EC50 (NCl-H2052)
O=C1NCN(c2ccc(C(F)(F)F)cc2)c2ccccc21 [Cpd. No. 1, 1-(4-(trifluoromethyl)phenyl)-2,3-dihydroquinazolin-4(1H)-one]	1 to 20 µM	> 10 µM	> 10 µM
O=C1c2ccccc2N(c2ccc(C(F)(F)F)cc2)CN1CCCO [Cpd. No. 2, 3-(3-hydroxypropyl)-1-(4-(trifluoromethyl)phenyl)-2,3-dihydroquinazolin-4(1H)-one]	1 to 20 µM		
O=C(O)CN1CN(c2ccc(C(F)(F)F)cc2)c2ccccc2C1=O [Cpd. No. 3, 2-(4-oxo-1-(4-(trifluoromethyl)phenyl)-1,4-dihydroquinazolin-3(2H)-yl)acetic acid]	1 to 20 µM		
O=C1c2ccccc2N(c2ccc(C(F)(F)F)cc2)CN1CCO [Cpd. No. 4, 3-(2-hydroxyethyl)-1-(4-(trifluoromethyl)phenyl)-2,3-dihydroquinazolin-4(1H)-one]	1 to 20 µM		
NC(=O)CN1CN(c2ccc(C(F)(F)F)cc2)c2ccccc2C1=O [Cpd. No. 5, 2-(4-oxo-1-(4-(trifluoromethyl)phenyl)-1,4-dihydroquinazolin-3(2H)-yl)acetamide]	> 20 µM		
CNC(=O)CN1CN(c2ccc(C(F)(F)F)cc2)c2ccccc2C1=O [Cpd. No. 6, N-methyl-2-(4-oxo-1-(4-(trifluoromethyl)phenyl)-1,4-dihydroquinazolin-3(2H)-yl)acetamide]	> 20 µM		
C=CC(=O)NC1CN(c2ccccc2)c2ccccc2C1=O (stereo not drawn) [Cpd. No. 7, N-(4-oxo-1-phenyl-1,2,3,4-tetrahydroquinolin-3-yl)acrylamide]	1 to 20 µM		
